According to PMC3983201, “6-Methoxyflavanones as Bitter Taste Receptor Blockers for hTAS2R39” (PLoS ONE, 2014):
Like-named read-outs stand apart in the source and are kept apart here.

Columns and labels:
[1] = target: T1, hTAS2R39 (Homo sapiens, UniProt P59534); test: Calcium assay of hTAS2R39 activation/inhibition in HEK293 T-Rex Flp-In cells; assay type: cell-based
T1 construct: first 45 amino acids of rat somatostatin receptor type 3 (sst3 membrane-targeting tag) (N); expressed in transfected cells; host or cells: HEK293 T-Rex Flp-In cells stably expressing Gα16-gust44; receptor in pcDNA5/FRT, induced with doxycycline
T1 sequence (P59534 1-338): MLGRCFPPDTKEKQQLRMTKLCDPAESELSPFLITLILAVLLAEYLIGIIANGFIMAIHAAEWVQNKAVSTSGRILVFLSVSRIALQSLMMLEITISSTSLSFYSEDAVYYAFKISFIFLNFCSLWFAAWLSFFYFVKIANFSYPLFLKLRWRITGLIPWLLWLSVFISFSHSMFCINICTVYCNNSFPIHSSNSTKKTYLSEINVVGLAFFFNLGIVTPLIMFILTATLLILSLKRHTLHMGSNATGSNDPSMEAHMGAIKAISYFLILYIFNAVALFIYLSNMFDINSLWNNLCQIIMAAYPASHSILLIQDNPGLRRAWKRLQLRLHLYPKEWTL

[2] = target: T2, hTAS2R16 (Homo sapiens, UniProt Q9NYV7); test: Calcium assay of hTAS2R16 activation/inhibition (salicin as agonist); assay type: cell-based; conditions: for inhibition of salicin response on hTAS2R16: 10 mM salicin, simultaneous and stepwise addition
T2 construct: expressed in transfected cells; host or cells: induced versus non-induced cells
T2 sequence (Q9NYV7 1-291): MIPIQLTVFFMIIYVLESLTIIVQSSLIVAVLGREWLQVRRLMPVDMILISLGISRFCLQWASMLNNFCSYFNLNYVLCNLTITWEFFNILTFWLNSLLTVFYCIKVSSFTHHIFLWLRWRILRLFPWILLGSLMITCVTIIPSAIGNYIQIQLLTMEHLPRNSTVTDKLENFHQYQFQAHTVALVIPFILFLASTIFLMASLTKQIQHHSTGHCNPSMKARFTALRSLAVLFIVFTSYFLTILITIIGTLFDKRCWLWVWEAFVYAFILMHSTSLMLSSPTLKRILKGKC
Experimental: Cells were seeded into poly-L-lysine-coated (Sigma-Aldrich) 96-well plates (black wall, clear bottom, Greiner bio-one, Frickenhausen, Germany) at a density of 7*10^3 cells in 100 μL/well and cultured for 24 h. Transcription of the receptors was induced by adding 0.25 μg/mL doxycycline (Sigma-Aldrich). Cells were induced for 24 h and then loaded with the calcium-sensitive fluorescent dye Fluo-4-AM (2.5 μM, Invitrogen), which was dissolved in Tyrode's buffer containing 5% (v/v) tetracycline-free FBS (Lonza). One hour after loading, cells were washed with Tyrode's buffer and taken up in Tyrode's buffer. Stock solutions of test compounds were prepared in DMSO and diluted to the appropriate concentration in Tyrode's buffer, not exceeding a DMSO concentration of 1% (v/v).
Receptor activation or inhibition was measured via intracellular Ca^2+ release in a FlexStation II 384 or FlexStation III (Molecular Devices Corporation, Sunnyvale, CA, USA) by measuring fluorescence (excitation 485 nm/emission 520 nm) for either 90 s or 240 s at 37°C. Two methods of compound administration were applied: simultaneous and stepwise addition of potential antagonist and agonist. The first 17 s before compound addition were used for baseline determination. For the simultaneous method, agonist and potential antagonist were pre-mixed, administered after 17 s, and fluorescence was measured for in total 90 s. For the stepwise method, after 17 s, the potential antagonist was added, fluorescence was measured until 120 s, and after 120 s the agonist was added and measured for another 120 s, in total 240 s. […] Each experiment was performed at least in duplicate in separate experiments (as indicated for each figure).
Screening for hTAS2R39 inhibition by flavanones was performed with simultaneous application of agonist (200 μM ECG) and putative antagonist (250 μM flavanone). Inhibition was indicated when [drawing 1] . In case of indicated inhibition, flavanones were applied at different concentrations, in order to test for dose-dependent inhibition, at the EC80 concentration of the agonist. Another agonist of hTAS2R39, denatonium benzoate, was used in inhibition experiments at 1.7 mM (EC80). hTAS2R14 inhibition was tested with 640 μM ECG or 70 μM genistein as agonists, representing their respective EC80 concentrations. To investigate the specificity of flavanones for inhibition of hTAS2R39 and hTAS2R14, another bitter taste receptor, hTAS2R16 (not known to be activated by flavonoids), was used in inhibition experiments ( File S3 ) towards its agonist salicin.
SUPPORTING INFORMATION to the article “6-Methoxyflavanones as Bitter Taste Receptor Blockers for hTAS2R39” by Roland, WSU; Gouka, RJ; Gruppen, H; Driesse, M; van Buren, L; Smit, G; Vincken, J-P File S3 Investigation of identified inhibitors on hTAS2R16.
To investigate whether the hTAS2R39 inhibitors 6,3’-dimethoxyflavanone (3), 4’- fluoro-6-methoxyflavanone (6), and 6-methoxyflavanone (11) were able to inhibit a bitter receptor not known for flavonoid activation, hTAS2R16 was selected for inhibition experiments. Measuring dose-response curves of the hTAS2R16 agonist […]
Figure S3. Inhibition of response of 10 mM salicin (---) on hTAS2R16 (induced (●), non-induced (○)) by 4’-fluoro-6-methoxyflavanone (6) after simultaneous addition (A) and stepwise addition (B), by 6,3’-dimethoxyflavanone (3) after simultaneous addition (C) and stepwise addition (D), and by 6-methoxyflavanone (11) after simultaneous addition (E) and stepwise addition (F). […]

## COc1ccc2c(c1)C(=O)CC(c1ccc(F)cc1)O2 (centres unmarked) [Compound 6, 4′-Fluoro-6-methoxyflavanone]
[1]; 200 μM ECG, 100 μM antagonist, washed with Tyrode's buffer, stimulated again
  reversibility of inhibition (washout experiment): reversible
[1]; 200 μM ECG, simultaneous addition, reached at 63 μM
  maximal signal reduction: 65%
[1]; 200 μM ECG, stepwise addition (applied prior to ECG)
  receptor blocking: 100%
[1]; 1.7 mM denatonium benzoate, simultaneous addition, up to 63 μM
  maximal signal reduction: 58%
[1]; 1.7 mM denatonium benzoate, stepwise addition
  receptor blocking: 100%
[1]; ECG dose-response curves at various antagonist concentrations and wash-out experiments
  mechanism of antagonism on hTAS2R39: reversible insurmountable antagonism
[1]; inhibition of hTAS2R39 response to 200 μM ECG, simultaneous addition, n.b. = no blocking
  Threshold, Simultaneous: 8 µM
[1]; inhibition of hTAS2R39 response to 200 μM ECG, simultaneous addition, n.b. = no blocking, read-out: IC50, Simultaneous
  IC50: 32 ± 7 µM
[1]; inhibition of hTAS2R39 response to 200 μM ECG, stepwise addition
  Threshold, Stepwise: 63 µM
[1]; inhibition of hTAS2R39 response to 200 μM ECG, stepwise addition, read-out: IC50, Stepwise
  IC50: 102 ± 9 µM
[1]; inhibition of hTAS2R39 response to 1.7 mM denatonium benzoate, simultaneous addition, n.b. = no blocking
  Threshold, Simultaneous: 8 µM
[1]; inhibition of hTAS2R39 response to 1.7 mM denatonium benzoate, simultaneous addition, n.b. = no blocking, read-out: IC50, Simultaneous
  IC50: 22 ± 12 µM
[1]; inhibition of hTAS2R39 response to 1.7 mM denatonium benzoate, stepwise addition
  Threshold, Stepwise: 32 µM
[1]; inhibition of hTAS2R39 response to 1.7 mM denatonium benzoate, stepwise addition, read-out: IC50, Stepwise
  IC50: 55 ± 3 µM
[1]; simultaneous application of 200 μM ECG and 250 μM flavanone
  significance of the inhibitory effect at screening concentrations: significant
[1]; simultaneous application of 200 μM ECG and 250 μM flavanone, inhibition when response ratio <1
  reduction of ECG response on hTAS2R39 (screening for inhibition): showed reduction of ECG responses
[2]
  inhibition of salicin response on hTAS2R16: no inhibition

## COc1ccc2c(c1)C(=O)CC(c1ccccc1)O2 (centres unmarked) [Compound 11, 6-Methoxyflavanone]
[2]
  inhibition of salicin response on hTAS2R16: no inhibition

## CCCN(CCC)S(=O)(=O)c1ccc(C(=O)O)cc1 [probenecid, p-(dipropylsulfamyl)benzoic acid, reference compound]
[1]; 0.5 mM probenecid in Tyrode's buffer, agonist ECG
  inhibition of hTAS2R39 by probenecid in the buffer: did not lead to inhibition
[2]; 0.5 mM probenecid in Tyrode's buffer and dye loading buffer, agonist salicin
  inhibitory effect of probenecid on hTAS2R16 assay: no inhibitory effect
